Laboratory results: ChEMBL document CHEMBL1141425, “Cytotoxic clerodane diterpenoids and their hydrolysis products from Casearia nigrescens from the rainforest of Madagascar” (J Nat Prod, 2007)

What follows are molecules tested on A2780 (assay: Cytotoxicity against human A2780 cells).
Format: cell-based

| Compound | IC50 [nM] |
| --- | --- |
| C=CC(=C)CC[C@]1(C)[C@H](C)[C@@H](OC(C)=O)[C@H](O)[C@@]2(C=O)C(C=O)=C[C@H](OC(=O)CCC)C[C@@H]12 | 3500 |
| C=CC(=C)CC[C@]1(C)[C@H](C)[C@@H](OC(C)=O)[C@H](O)[C@@]23C(=C[C@H](OC(=O)CCC)C[C@@H]12)[C@@H](OC(C)=O)O[C@H]3OC(C)=O [CASEANIGRESCEN A] | 1400 |
| C=CC(=C)CC[C@]1(C)[C@H](C)[C@@H](O)[C@H](O)[C@@]23C(=C[C@H](OC(=O)CCC)C[C@@H]12)[C@@H](OC(C)=O)O[C@H]3OC(C)=O [CASEANIGRESCEN B] | 830 |
| C=CC(=C)CC[C@]1(C)[C@H](C)[C@@H](O)[C@H](OC(C)=O)[C@@]23C(=C[C@H](OC(=O)CCC)C[C@@H]12)[C@@H](OC(C)=O)O[C@H]3OC(C)=O [CASEANIGRESCEN C] | 1000 |
| C=CC(=C)CC[C@]1(C)[C@H](C)C[C@H](O)[C@@]2(C=O)C(C=O)=C[C@H](OC(=O)CCC)C[C@@H]12 [CASEANIGRESCEN D2] | 1500 |
| C=CC(=C)CC[C@]1(C)[C@H](C)C[C@H](O)[C@@]23C(=C[C@H](OC(=O)CCC)C[C@@H]12)[C@@H](OC(C)=O)O[C@H]3OC(C)=O [CASEANIGRESCEN D] | 1000 |
